Consider four compounds from publication PMC7400437, “Synthesis and Evaluation of the Antibacterial Activities of 13-Substituted Berberine Derivatives” (Antibiotics, 2020).

One data set concerns S. aureus. Description: MIC, antimicrobial activity assay. In kind it is cell-based, Staphylococcus aureus (ATCC 6538P). To be noted: Staphylococcus aureus; Table 1 first screening; read-out: Minimal Inhibitory Concentration (MIC) S. aureus.
In a further data set the test system is B. subtilis. Description: MIC, antimicrobial activity assay. The format is cell-based, Bacillus subtilis (ATCC 6633). To be noted: Bacillus subtilis; Table 1 first screening; read-out: Minimal Inhibitory Concentration (MIC) B. subtilis.
The test system of a further data set is E. coli. As to the kind of experiment: MIC, antimicrobial activity assay. To be noted: Escherichia coli; Table 1 first screening; read-out: Minimal Inhibitory Concentration (MIC) E. coli. The format is cell-based, Escherichia coli (ATCC 8739).
A further data set relates to P. aeruginosa. Description: MIC, antimicrobial activity assay. The format is cell-based, Pseudomonas aeruginosa (ATCC 9027). To be noted: Pseudomonas aeruginosa; Table 1 first screening; read-out: Minimal Inhibitory Concentration (MIC) P. aeruginosa.
For another data set, the system named is M. smegmatis. Description: microbe, parasite or virus in culture. In kind it is cell-based, Mycobacterium smegmatis (mc2155, ATCC 700084). To be noted: Mycolicibacterium smegmatis, 72 h, read-out: Minimal Inhibitory Concentration (MIC) M. smegmatis.
A further data set relates to C. albicans. As to the kind of experiment: MIC, antifungal activity assay. To be noted: Candida albicans; Table 1 first screening; 35 °C, 24 h; read-out: Minimal Inhibitory Concentration (MIC) C. albicans. The format is cell-based, Candida albicans (DSM 10697).
Data set [1] relates to bacterial membrane integrity. As to the kind of experiment: Bacterial membrane permeabilization assay (propidium iodide), strain not specified. The format is cell-based. To be noted: data not shown. How it is done:
Membrane permeabilization by berberine derivatives was evaluated using the cell-impermeable DNA/RNA probe propidium iodide as previously explained. Logarithmic growing bacterial suspensions were prepared from overnight bacterial suspension by 1 in 10 dilution. After 3 h incubation at 37 °C, 200 rpm, bacterial suspensions were centrifuged for 5 min at 3000 rpm. Cell pellets were then resuspended in sterile PBS at about 10^9 cells/mL. Propidium iodide (Sigma Aldrich) was then added to the suspension at a final concentration of 60 µM. 100 µL of this suspension were then transferred into 96-well black plates (Dominique Dutscher) and exposed to increasing concentrations of berberine’s derivative (from 0 to 100 µM, 1:2 dilution). […] All steps of the assay were performed in aerobic condition except for H. pylori which was done in microaerobic condition generated with GasPak unit (Sigma Aldrich). Bacteria were incubated at 37 °C and the kinetics of fluorescence variations (excitation at 530 nm and emission at 590 nm) were then recorded over time using a Synergy Mx microplate reader (Biotek). Cetyl trimethylammonium bromide (CTAB) at 300 µM was used as positive control giving 100% permeabilization. Results were expressed in % of permeabilization. All experiments were done in triplicate.

The test system of data set [2] is selected relevant microorganisms. Description: Antimicrobial activity, overall statement (active/inactive). The format is cell-based.
Data set [3] concerns BEAS (human airway epithelial cells). Description: Cytotoxic assay on human cells (resazurin). The format is cell-based. To be noted: Epithelial cell, 48 h, means +/−SD, read-out: Inhibitory Concentration 50 (IC50) on cell viability, BEAS. How it is done:
(§1) The toxicity of berberine and berberine’s derivatives on human cells was evaluated using resazurin assay as previously described. Human cells used were BEAS (ATCC CRL-9609), Caco2 (ATCC HTB-37) and HepG2 (ATCC HB-8065) corresponding respectively to human airway epithelial cells, intestinal epithelial cells and liver cells. Cells were cultured in Dulbecco’s modified essential medium (DMEM) supplemented with 10% fetal bovine serum (FBS), 1% L-glutamine and 1% antibiotics (Thermo Fisher Scientific, Illkirch-Graffenstaden, France). Cells were routinely grown on 25 cm^2 flasks and maintained in a 5% CO2 incubator at 37 °C. For toxicity assay, cells were detached using trypsin–EDTA solution (Thermo Fisher Scientific), counted using Mallasez counting chamber and seeded into 96-well cell culture plates (Greiner bio-One, Dominique Dutscher, Brumath, France) at approximately 10,000 cells per well. The cells were left to grow for 48–72 h at 37 °C in a 5% CO2 incubator until they reached confluence. Media from wells was then aspirated and cells were treated with 100 µL of culture media containing increasing concentrations of berberine or berberine’s derivatives obtained by serial dilution (from 0 to 50 µM, 1:2 dilution), DMSO (0.5% DMSO final concentration) was used as negative control. After 48 h incubation at 37 °C in a 5% CO2 incubator, cell viability was evaluated using resazurin based in vitro toxicity assay kit (Sigma-Aldrich) following manufacturer’s instructions. Briefly, cell wells were emptied, and cells were treated with 100 µL of resazurin diluted 1:10 in sterile PBS containing calcium and magnesium (PBS^++, pH 7.4). After 4 h incubation at 37 °C, fluorescence intensity (excitation wavelength of 530 nm/emission wavelength of 590 nm) was measured using Synergy Mx microplate reader (Biotek). The fluorescence values were normalized by the controls (DMSO treated cells) and expressed as percent viability. The IC50 values of berberine and berberine’s derivatives on cell viability (i.e., the concentration of derivative causing a reduction of 50% of the cell viability) were calculated using GraphPad® Prism 7 software (San Diego, CA, USA). t-Test and two ways ANOVA analyses were used to address the significant differences between mean values with significance set at p < 0.05.

The test system of data set [4] is Caco2 (human intestinal epithelial cells). As to the kind of experiment: Cytotoxic assay on human cells (resazurin). The format is cell-based. To be noted: Homo sapiens, Caco-2, 48 h, read-out: Inhibitory Concentration 50 (IC50) on cell viability, Caco2. How it is done: as §1
In data set [5] the test system is HepG2 (human liver cells). As to the kind of experiment: Cytotoxic assay on human cells (resazurin). In kind it is cell-based. To be noted: HepG2, 48 h, read-out: Inhibitory Concentration 50 (IC50) on cell viability, HEPG2. How it is done:
as §1
On the technique in general: The colour change of resazurin is a common sign of viable cells or microbes.

The term melting point denotes the temperature of the solid-liquid transition.

In the case of `CCOC(=O)Cc1c2[n+](cc3c(OC)c(OC)ccc13)CCc1cc3c(cc1-2)OCO3` [Compound 4, 13-(Acetic Acid Ethylester) Berberine], the melting point came out at 216 °C. The MIC with S. aureus is above 100 µM. For the same compound, the MIC with B. subtilis was above 100 µM. The MIC with E. coli was above 100 µM. Also, in the data set on P. aeruginosa, the MIC is above 100 µM. In addition, in the data set on M. smegmatis, the MIC came out at 100 µM. Also, the MIC in the data set with C. albicans is above 100 µM.

Regarding `COc1ccc2c(Cc3ccc(/C=C/C(=O)c4cc(NC(C)=O)ccc4O)cc3)c3[n+](cc2c1OC)CCc1cc2c(cc1-3)OCO2` [Compound 24, N-{3-[(2E)-3-{4-[(Berberin-13-yl)methyl]phenyl}prop-2-enoyl]-4-hydroxyphenyl}acetamide], the MIC with S. aureus is 50 to 100 µM; with B. subtilis, 100 µM; in the data set with E. coli, above 100 µM; with P. aeruginosa, above 100 µM; in the data set on M. smegmatis, 25 µM; in the data set on C. albicans, above 100 µM. Moreover, the “membrane permeabilization (inactive derivatives)” value in [1] is listed as “low to no membrane permeabilization”. The “antimicrobial activity (active/inactive)” value in data set [2] is listed as “No Activity”.

Consider `COc1ccc2c(Cc3ccc(F)cc3)c3[n+](cc2c1OC)CCc1cc2c(cc1-3)OCO2` [Compound 6, 13-(4-Fluorobenzyl)Berberine], for which the melting point came out at 238 °C. In the data set with S. aureus, the MIC is 12.5 to 25 µM. For the same compound, in the data set with B. subtilis, the MIC is 50 µM. The MIC with E. coli was above 100 µM. The MIC with P. aeruginosa is above 100 µM. Further, the MIC in the data set with M. smegmatis came to 25 µM. Moreover, the MIC in the data set on C. albicans is above 100 µM. Further, the IC50 in data set [3] is above 50 µM. The IC50 in data set [4] came to 36.9 ± 4.3 µM. In addition, the IC50 in data set [5] was above 50 µM.

In the case of `COc1cc(Cc2c3[n+](cc4c(OC)c(OC)ccc24)CCc2cc4c(cc2-3)OCO4)cc(OC)c1OC` [Compound 15, 13[(3,4,5-Trimethoxyphenyl)methyl]Berberine], the MIC with S. aureus was 100 µM; in the data set with B. subtilis, above 100 µM; with E. coli, above 100 µM; in the data set on P. aeruginosa, above 100 µM; in the data set on M. smegmatis, 50 µM; in the data set on C. albicans, above 100 µM. Moreover, the “membrane permeabilization (inactive derivatives)” value in data set [1] was “low to no membrane permeabilization”. Further, the “antimicrobial activity (active/inactive)” value in data set [2] is “No Activity”.
